Experimental data reported in patent US9145415B2, “Nitrogen-containing heterocyclic compound or salt thereof” (FUJIFILM Corporation, priority 2012, dated 2015).
Read-outs that look alike come from different tables or passages of the source.

Experiments:
Molm-13 cells = test: Leukemia cell proliferation inhibition test (ATPlite), Molm-13; format: cell-based; conditions: Homo sapiens, read-out: MOLM13 cell proliferation inhibition effect
Experimental: (§1) A leukemia cell proliferation inhibition test was performed for the compounds of the present invention by using the leukemia cell strains MV4-11 (ATCC Number, CRL-9591) and Molm-13 (DSMZ Number, ACC554).
(§2) The leukemia cell proliferation inhibition test was performed by the method described below.
(§3) For the purpose of measuring proliferation inhibition attained with a compound, the total cell count was quantified on the basis of the total cellular ATP concentration using the ATPlite (PerkinElmer) reagent utilizing firefly luciferase. The Molm-13 or MV4-11 cells were added to the RPMI medium containing penicillin and streptomycin (penn/strep) and 10% FBS at a density of 2×10^5 cells/ml, and 50 μL (10,000 cells) of the cell suspension was inoculated to each well of a 96-well plate (Corning).
(§4) A serially diluted solution of a compound or 0.1% DMSO (solvent control) in a volume of 50 μL was added to the cells, and then the cells were cultured for 72 hours under the standard cell proliferation conditions (37° C., 5% CO2) to allow proliferation of the cells. In order to measure the proliferation of the total cells, equal volume of the ATPlite reaction mixture was added to each well in accordance with the instructions attached to ATPlite, and then luminescence count of the well was measured (relative light unit, RLU).
(§5) The RLU signal observed with the DMSO solvent control after 72 hours of the culture was defined as a signal indicating 0% inhibition, and the GI50 value for the proliferation inhibition corresponds to a concentration of a compound that provides 50% inhibition based on the proliferation of the total cells contained in the DMSO solvent control. Each data point was obtained from samples in duplicate. The GI50 values were calculated by the non-linear regression fitting (Fit Model (205)) according to a sigmoid dose-reaction equation using the XLfit software.

MV4-11 cells = test: Leukemia cell proliferation inhibition test (ATPlite), MV4-11; format: cell-based; conditions: Homo sapiens, read-out: MV4-11 cell proliferation inhibition effect
Experimental: as §1, §2, §3, §4, §5

[1] = molecular target: T1, human FLT3 protein (FLT3 (WT)) (Homo sapiens, UniProt P36888); test: FLT3 inhibition test (FLT3 enzyme inhibition, time-resolved fluorescence of substrate peptide phosphorylation); format: biochemical; conditions: read-out: FLT3 (WT) enzyme inhibition activity
T1 construct: human FLT3 protein (intracellular region, 564 to 993 aa); GST; purchased Carna Biosciences; host or cells: baculovirus expression system
T1 sequence (P36888 564-993): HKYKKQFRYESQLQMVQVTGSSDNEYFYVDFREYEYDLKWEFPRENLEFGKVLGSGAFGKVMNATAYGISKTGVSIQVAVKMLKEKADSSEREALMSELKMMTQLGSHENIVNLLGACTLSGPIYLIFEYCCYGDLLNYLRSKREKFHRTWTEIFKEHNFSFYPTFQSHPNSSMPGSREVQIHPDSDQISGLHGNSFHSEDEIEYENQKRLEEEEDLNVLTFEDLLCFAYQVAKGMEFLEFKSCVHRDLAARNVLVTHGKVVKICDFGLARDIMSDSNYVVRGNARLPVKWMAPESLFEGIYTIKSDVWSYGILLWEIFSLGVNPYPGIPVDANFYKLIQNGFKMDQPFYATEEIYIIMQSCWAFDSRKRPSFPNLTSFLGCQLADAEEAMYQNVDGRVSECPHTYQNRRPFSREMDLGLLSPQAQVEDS
Experimental: The FLT3 inhibition test was performed for the compounds of the present invention by the method described below.
A reaction mixture in a volume of 9 μL containing the FLT3 protein and a test compound of a predetermined concentration (1.2 μg of FLT3, 100 mM HEPES, 10 mM MgCl2, 25 mM NaCl, 0.01% BSA, 1 mM DTT, pH 7.5) was left standing at 25° C. for 15 minutes. […] (Toray Industries), and 3 μL (final concentration 50 μM) of ATP (Sigma-Aldrich) were added to the reaction mixture, and the mixture was shaken for 2 minutes, and then further left standing at 25° C. for 30 minutes to allow the enzymatic reaction.

[2] = MOLM-13, 72 h, Molm-13, 72 hours culture, ATPlite, GI50 per method
[3] = MV4-11, 72 h, MV4-11, 72 hours culture, ATPlite, GI50 per method
[4] = GST-fused human FLT3 (564 to 993 aa), ATP 50 μM

| Structure (SMILES) | IC50 (Molm-13 cells; [2]) [nM] | IC50 (MV4-11 cells; [3]) [nM] | IC50 [1, 4] [nM] | IC50 (Molm-13 cells; MOLM-13, MOLM13 cell) [nM] | IC50 (MV4-11 cells; MV4-11, MV4-11 cell) [nM] | IC50 ([1]; FLT3 (WT)) [nM] |
| --- | --- | --- | --- | --- | --- | --- |
| CC#CC(=O)N(C)[C@@H](C)C(=O)Nc1cccc(NC(=O)c2cnc(Nc3ccc(C(N)=O)cc3)nc2NCCC)c1 [Compound 3-11] | 10 to 100 | < 10 | < 10 |  |  |  |
| C[C@@H](C(=O)N[C@H]1C[C@@H](C#Cc2cnc(Nc3ccc(F)cc3)nc2NC2CC2)C1)N(C)C(=O)/C=C/CN(C)C (relative stereo) [Compound 15-9, (E)-N—((S)-1-(((1S*,3R*)-3-((4-(Cyclopropylamino)-2-((4-fluorophenyl)amino)pyrimidin-5-yl)ethynyl)cyclobutyl)amino)-1-oxopropan-2-yl)-4-(dimethylamino)-N-methyl-2-butenamide] | < 10 | < 10 | < 10 |  |  |  |
| C=C(C)C(=O)N(C)[C@@H](C)C(=O)Nc1cccc(NC(=O)c2cnc(Nc3ccc(C(N)=O)cc3)nc2NCCC)c1 [Compound 3-10] | 100 to 1000 | 100 to 1000 | < 10 |  |  |  |
| CCCNc1nc(Nc2cccc(F)c2)ncc1/C=C/c1cccc(NC(=O)[C@H](C)N(C)C(=O)/C=C/CN(C)C)c1 [Compound 7-27] | < 10 | 10 to 100 | < 10 |  |  |  |
| CCCNc1nc(Nc2ccc(C#N)c(C)c2)ncc1C#CCCCNC(=O)[C@H](C)N(C)C(=O)/C=C/CN(C)C [Compound 21-3] | < 10 | < 10 | < 10 |  |  |  |
| CCCNc1nc(Nc2ccc(C(N)=O)cc2)ncc1C(=O)Nc1cccc(NC(=O)[C@H](C)N(C)C(=O)/C=C/CNC)c1 [Compound 4-2] | < 10 | < 10 | < 10 |  |  |  |
| CNc1nc(Nc2ccc(C#N)cc2)ncc1C#CCCCNC(=O)[C@H](C)N(C)C(=O)/C=C/CN(C)C [Compound 10-45] | < 10 | < 10 | < 10 |  |  |  |
| CCCNc1nc(Nc2ccc(F)c(OC)c2)ncc1C#CCCCNC(=O)[C@H](C)N(C)C(=O)/C=C/CN(C)C [Compound 9-29] | < 10 | < 10 | < 10 |  |  |  |
| CCCNc1nc(Nc2ccc3occc3c2)ncc1C#CCCCNC(=O)[C@H](C)N(C)C(=O)/C=C/CN(C)C [Compound 21-34] |  |  |  | < 10 | < 10 | < 10 |
| C[C@@H](C(=O)N[C@H]1C[C@@H](C#Cc2cnc(Nc3cccc(C#N)c3)nc2NC2CC2)C1)N(C)C(=O)/C=C/CN(C)C [Compound 13-20, (E)-N—((S)-1-(((1S,3R)-3-((2-((3-Cyanophenyl)amino)-4-(cyclopropylamino)pyrimidin-5-yl)ethynyl)cyclobutyl)amino)-1-oxopropan-2-yl)-4-(dimethylamino)-N-methyl-2-butenamide] | < 10 | < 10 | < 10 |  |  |  |
| C=CC(=O)NCC(=O)NCCCNC(=O)c1cnc(Nc2ccc3cnccc3c2)nc1NCCC [Compound 6-5] | 10 to 100 | 10 to 100 | < 10 |  |  |  |
| CNc1nc(Nc2ccc(F)nc2)ncc1C#C[C@@H]1CCC[C@H](NC(=O)[C@H](C)N(C)C(=O)/C=C/CN(C)C)C1 [Compound 15-3] | < 10 | < 10 | < 10 |  |  |  |
| CCCNc1nc(Nc2ccc(C(N)=O)cc2)ncc1C(=O)NCCCN[C@@H]1CCCC[C@@H]1NC(=O)/C=C/CN(C)C [Compound 3-25] |  |  | < 10 |  |  |  |

Next, values leading:

| IC50 (Molm-13 cells; [2]) [nM] | IC50 (MV4-11 cells; [3]) [nM] | IC50 [1, 4] [nM] | IC50 (Molm-13 cells; MOLM-13, MOLM13 cell) [nM] | IC50 (MV4-11 cells; MV4-11, MV4-11 cell) [nM] | IC50 ([1]; FLT3 (WT)) [nM] | Structure (SMILES) |
| --- | --- | --- | --- | --- | --- | --- |
| < 10 | < 10 | < 10 |  |  |  | COCCCNc1nc(Nc2ccc3cn[nH]c3c2)ncc1C#CCCCNC(=O)[C@@H]1CCCN1C(=O)/C=C/CN(C)C [Compound 10-71] |
| 10 to 100 | 10 to 100 | < 10 |  |  |  | CCCNc1nc(Nc2ccc(C(N)=O)cc2)ncc1C#Cc1ccc2nc(CNC(=O)/C=C/CN(C)C)[nH]c2c1 [Compound 8-9] |
|  |  |  | < 10 | < 10 | < 10 | CNc1nc(Nc2ccc(OC)c(F)c2)ncc1C#C[C@@H]1CCC[C@H](NC(=O)[C@H](C)N(C)C(=O)/C=C/CN(C)C)C1 [Compound 21-32, (E)-4-(Dimethylamino)-N—((S)-1-(((1S,3R)-3-((2-((3-fluoro-4-methoxyphenyl)amino)-4-(methylamino)pyrimidin-5-yl)ethynyl)cyclohexyl)amino)-1-oxopropan-2-yl)-N-methyl-2-butenamide] |
| 10 to 100 | < 10 | < 10 |  |  |  | CCCNc1nc(Nc2cncc(F)c2)ncc1C#CC(C)(C)CCNC(=O)[C@H](C)N(C)C(=O)/C=C/CN(C)C [Compound 9-21] |
| < 10 | < 10 | < 10 |  |  |  | C[C@@H](C(=O)N[C@H]1CCC[C@@H](C#Cc2cnc(Nc3ccc(C#N)cc3)nc2N2CCOCC2)C1)N(C)C(=O)/C=C/CN(C)C [Compound 14-5] |
| < 10 | < 10 | < 10 |  |  |  | C[C@@H](C(=O)NCCCC#Cc1cnc(Nc2ccc(C#N)cc2)nc1N1CCCC(F)(F)C1)N(C)C(=O)/C=C/CN(C)C [Compound 10-44] |
| 10 to 100 | 10 to 100 | < 10 |  |  |  | CCCNc1nc(Nc2ccc(C(N)=O)cc2)ncc1C(=O)Nc1cccc(NC(=O)[C@H](C)N(C)C(=O)/C=C/CBr)c1 [Compound 3-7, (S,E)-N-(3-(2-(4-bromo-N-methyl-2-butenamido)propanamido)phenyl)-2-((4-carbamoylphenyl)amino)-4-(propylamino)pyrimidine-5-carboxamide] |
| < 10 | < 10 | < 10 |  |  |  | CNc1nc(Nc2cccc(F)c2)ncc1C#CCCCNC(=O)[C@@H]1C[C@H](O)CN1C(=O)/C=C/CN(C)C [Compound 7-74] |
| < 10 | < 10 | < 10 |  |  |  | CNc1nc(Nc2cccc(C#N)c2)ncc1C#C[C@H]1C[C@@H](NC(=O)[C@H](C)N(C)C(=O)/C=C/CN(C)C)C1 [Compound 13-15, (E)-N—((S)-1-(((1S,3R)-3-((2-((3-Cyanophenyl)amino)-4-(methylamino)pyrimidin-5-yl)ethynyl)cyclobutyl)amino)-1-oxopropan-2-yl)-4-(dimethylamino)-N-methyl-2-butenamide] |
| 10 to 100 | < 10 | < 10 |  |  |  | CCCNc1cc(Nc2cccc(F)c2)ncc1C(=O)Nc1cccc(NC(=O)[C@H](C)N(C)C(=O)/C=C/CN(C)C)c1 [Compound 18-2, (S,E)-N-(3-(2-(4-(dimethylamino)-N-methyl-2-butenamido)propanamido)phenyl)-6-((3-fluorophenyl)amino)-4-(propylamino)nicotinamide] |
| < 10 | < 10 | < 10 |  |  |  | CC[C@@H](C(=O)NCCCC#Cc1cnc(Nc2ccc(F)cc2)nc1Nc1ccc(OC)nc1)N(C)C(=O)/C=C/CN(C)C [Compound 10-39] |
| < 10 | < 10 |  |  |  |  | CCCNc1nc(Nc2ccc(C#N)cc2)ncc1C#CCCCNC(=O)[C@H](C)N(C)C(=O)/C=C/CN(C)C [Compound 7-5, (S,E)-N-(1-((5-(2-((4-Cyanophenyl)amino)-4-(propylamino)pyrimidin-5-yl)-4-pentyn-1-yl)amino)-1-oxopropan-2-yl)-4-(dimethylamino)-N-methyl-2-butenamide] |
| 100 to 1000 | 10 to 100 |  |  |  |  | CCCNc1nc(Nc2ccc(C(N)=O)cc2)ncc1C(=O)NCCCNC1CCCC[C@@H]1NC(=O)/C=C/CN(C)C (stereo partly shown) [Compound 3-25] |
| < 10 | < 10 |  |  |  |  | CCCNc1nc(Nc2ccc(C#N)cc2)ncc1C#CCCCNC(=O)[C@@H](C)N(C)C(=O)/C=C/CN(C)C [Compound 7-32] |
